Here are results for six molecules from US20250206732A1, “COMPOUNDS AND METHODS FOR THE TARGETED DEGRADATION OF KRAS” (Arvinas Operations, Inc., priority 2022, published 2025).

One assay has as its target T1, SW1573 HiBiT-KRASG12C (Homo sapiens, UniProt P01116, G12C).
T1 construct: expressed in transfected cells
The experiment in a line: HiBiT degradation assay (G12C), SW1573 HiBiT-KRASG12C cells.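 As to DC50: Letter grades: C is 1000 to 3000 nM and D is above 3000 nM.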 It counts as cell-based. To be noted: 24 hours treatment; for DC50: HiBiT luminescence; for Dmax: maximum degradation observed. The essentials: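 SW1573 cells expressing N-terminal HiBiT-KRASG12C (clone E6) treated 24 h at 37 °C with 10 μM to 508 pM compound in 0.5% DMSO, triplicate. HiBiT lytic luminescence normalized to DMSO, 4-parameter fit gives DC50 and Dmax; points with ≥50% alamar blue viability loss excluded.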

The target of the next assay is T2, AsPC-1 HiBiT-KRASG12D (Homo sapiens, UniProt P01116, G12D).
T2 construct: insert the HiBiT tag onto the N-terminus of one or more of the endogenous KRAS alleles; endogenous in cells; host or cells: AsPC-1 (ATCC CRL-1682), CRISPR-Cas9 knock-in clone, one tagged allele
T2 sequence (P01116 1-188 isoform P01116-2 G12D): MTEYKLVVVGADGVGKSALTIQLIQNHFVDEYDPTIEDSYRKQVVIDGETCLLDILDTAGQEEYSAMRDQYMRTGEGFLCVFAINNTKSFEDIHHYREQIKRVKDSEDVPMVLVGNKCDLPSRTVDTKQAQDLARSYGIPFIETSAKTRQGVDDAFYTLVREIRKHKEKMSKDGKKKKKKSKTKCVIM
The experiment in a line: HiBiT degradation assay (G12D), AsPC-1 HiBiT-KRASG12D cells. The conditions noted are these: 24 hours treatment; for Dmax: ASPC1, AsPC-1 HiBiT-KRASG12D cells, maximum degradation observed; for DC50: AsPC-1 HiBiT-KRASG12D cells, HiBiT luminescence. It counts as cell-based. Summed up:
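AsPC-1 cells carried a CRISPR knock-in of an N-terminal HiBiT tag on endogenous KRAS G12D. After 24 h compound treatment at 37 °C (triplicate), viability was read by alamar blue (4 h, fluorescence, normalized to DMSO). HiBiT-KRAS levels were then measured by Nano-Glo HiBiT lytic luminescence after 45 min at room temperature.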
(In general: The HiBiT peptide binds its large partner to form an active luciferase.)

T1 sequence (P01116 1-188 isoform P01116-2 G12C): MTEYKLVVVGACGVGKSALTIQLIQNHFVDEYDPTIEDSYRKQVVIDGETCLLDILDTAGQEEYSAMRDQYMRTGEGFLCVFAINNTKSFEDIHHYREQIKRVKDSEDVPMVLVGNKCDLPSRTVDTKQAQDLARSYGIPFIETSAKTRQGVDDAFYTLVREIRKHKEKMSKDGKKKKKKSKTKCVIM

In the case of `Cc1ncsc1-c1ccc([C@H](C)NC(=O)[C@@H]2C[C@@H](O)CN2C(=O)[C@@H](c2cc(OCC3CCN(CCOc4nc(N5CC6CCC(C5)N6)c5cnc(-c6cc(O)cc(Cl)c6C6CC6)c(F)c5n4)CC3)no2)C(C)C)cc1` [Compound 43, (2S,4R)-1-[(2R)-2-(3-{[1-(2-{[7-(3-chloro-2-cyclopropyl-5-hydroxyphenyl)-4-{3,8-diazabicyclo[3.2.1]octan-3-yl}-8-fluoropyrido[4,3-d]pyrimidin-2-yl]oxy}ethyl)piperidin-4-yl]methoxy}-1,2-oxazol-5-yl)-3-methylbutanoyl]-4-hydroxy-N-[(1S)-1-[4-(4-methyl-1,3-thiazol-5-yl)phenyl]ethyl]pyrrolidine-2-carboxamide], at SW1573 HiBiT-KRASG12C, the DC50 (in general, the midpoint of the concentration-degradation curve) is over 3 µM and the Dmax (as a rule, the largest share of the target that was removed) was in the range of 20 to 60%. Moreover, at AsPC-1 HiBiT-KRASG12D, the Dmax is 80 to 100% and the DC50 was under 0.6 µM.
The molecule `CCc1cccc2cc(O)cc(-c3ncc4c(N5CCCCCC5)nc(OC[C@@]56CCCN5[C@H](COC(=O)N5CCN(c7cc([C@@H](C(=O)N8C[C@H](O)C[C@H]8C(=O)N[C@@H](C)c8ccc(-c9scnc9C)cc8)C(C)C)on7)CC5)CC6)nc4c3F)c12` [Compound 44, [(3S,7aS)-7a-({[4-(azepan-1-yl)-7-(8-ethyl-3-hydroxynaphthalen-1-yl)-8-fluoropyrido[4,3-d]pyrimidin-2-yl]oxy}methyl)-hexahydro-1H-pyrrolizin-3-yl]methyl 4-{5-[(2S)-1-[(2S,4R)-4-hydroxy-2-{[(1S)-1-[4-(4-methyl-1,3-thiazol-5-yl)phenyl]ethyl]carbamoyl}pyrrolidin-1-yl]-3-methyl-1-oxobutan-2-yl]-1,2-oxazol-3-yl}piperazine-1-carboxylate] showed a DC50 on SW1573 HiBiT-KRASG12C of over 3 µM. Moreover, at AsPC-1 HiBiT-KRASG12D, the Dmax was under 20% and the DC50 is under 0.6 µM.
On SW1573 HiBiT-KRASG12C, `CCc1cccc2cc(O)cc(-c3ncc4c(N5CCCCCC5)nc(OC[C@]56CCCN5[C@@H](COC(=O)N5CCN(c7cc([C@H](C(=O)N8C[C@H](O)C[C@H]8C(=O)N[C@@H](C)c8ccc(-c9scnc9C)cc8)C(C)C)on7)CC5)CC6)nc4c3F)c12` [Compound 45, [(3R,7aR)-7a-({[4-(azepan-1-yl)-7-(8-ethyl-3-hydroxynaphthalen-1-yl)-8-fluoropyrido[4,3-d]pyrimidin-2-yl]oxy}methyl)-hexahydro-1H-pyrrolizin-3-yl]methyl 4-{5-[(2R)-1-[(2S,4R)-4-hydroxy-2-{[(1S)-1-[4-(4-methyl-1,3-thiazol-5-yl)phenyl]ethyl]carbamoyl}pyrrolidin-1-yl]-3-methyl-1-oxobutan-2-yl]-1,2-oxazol-3-yl}piperazine-1-carboxylate] returned a DC50 of at most 0.6 µM and a Dmax of 60 to 80%. At AsPC-1 HiBiT-KRASG12D, the Dmax was 80 to 100% and the DC50 was under 0.6 µM.
As for `CCc1cccc2cc(O)cc(-c3ncc4c(N5CCCCCC5)nc(OC[C@]56CCCN5[C@@H](COC(=O)N5CCN(c7cc([C@@H](C(=O)N8C[C@H](O)C[C@H]8C(=O)N[C@@H](C)c8ccc(-c9scnc9C)cc8)C(C)C)on7)CC5)CC6)nc4c3F)c12` [Compound 46, [(3R,7aR)-7a-({[4-(azepan-1-yl)-7-(8-ethyl-3-hydroxynaphthalen-1-yl)-8-fluoropyrido[4,3-d]pyrimidin-2-yl]oxy}methyl)-hexahydro-1H-pyrrolizin-3-yl]methyl 4-{5-[(2S)-1-[(2S,4R)-4-hydroxy-2-{[(1S)-1-[4-(4-methyl-1,3-thiazol-5-yl)phenyl]ethyl]carbamoyl}pyrrolidin-1-yl]-3-methyl-1-oxobutan-2-yl]-1,2-oxazol-3-yl}piperazine-1-carboxylate], the DC50 on SW1573 HiBiT-KRASG12C and on AsPC-1 HiBiT-KRASG12D was over 3 µM in each case.
On to `Cc1ncsc1-c1ccc([C@H](C)NC(=O)[C@@H]2C[C@@H](O)CN2C(=O)[C@@H](c2cc(OCC3CCN(CCOc4nc(N5CC6CCC(C5)N6)c5cnc(-c6c(OC(F)(F)F)ccc7[nH]ncc67)c(F)c5n4)CC3)no2)C(C)C)cc1` [Compound 47, (2S,4R)-1-[(2R)-2-{3-[(1-{2-[(4-{3,8-diazabicyclo[3.2.1]octan-3-yl}-8-fluoro-7-[5-(trifluoromethoxy)-1H-indazol-4-yl]pyrido[4,3-d]pyrimidin-2-yl)oxy]ethyl}piperidin-4-yl)methoxy]-1,2-oxazol-5-yl}-3-methylbutanoyl]-4-hydroxy-N-[(1S)-1-[4-(4-methyl-1,3-thiazol-5-yl)phenyl]ethyl]pyrrolidine-2-carboxamide], for which the DC50 on SW1573 HiBiT-KRASG12C and at AsPC-1 HiBiT-KRASG12D was over 3 µM in each case.
For the molecule `C#Cc1cccc2cc(O)cc(-c3ncc4c(N5CC6CCC(C5)N6)nc(OCCN5CCC(COc6cc([C@H](C(=O)N7C[C@H](O)C[C@H]7C(=O)N[C@@H](C)c7ccc(-c8scnc8C)cc7)C(C)C)on6)CC5)nc4c3F)c12` [Compound 48, (2S,4R)-1-[(2R)-2-{3-[(1-{2-[(4-{3,8-diazabicyclo[3.2.1]octan-3-yl}-7-(8-ethynyl-3-hydroxynaphthalen-1-yl)-8-fluoropyrido[4,3-d]pyrimidin-2-yl)oxy]ethyl}piperidin-4-yl)methoxy]-1,2-oxazol-5-yl}-3-methylbutanoyl]-4-hydroxy-N-[(1S)-1-[4-(4-methyl-1,3-thiazol-5-yl)phenyl]ethyl]pyrrolidine-2-carboxamide], on SW1573 HiBiT-KRASG12C, the DC50 is over 3 µM. At AsPC-1 HiBiT-KRASG12D, the maximal degradation (Dmax) lay within 80 to 100% and the DC50 was under 0.6 µM.
